Patent publication US20250206757A1 (GASHERBRUM BIO, INC., priority 2022, published 2025)

target: GLP-1 Receptor (Homo sapiens, UniProt P43220); test: GLP-1R agonist cAMP stimulation assay (HEK293/GLP1R/CRE-LUC cells, HTRF cAMP dynamic 2 kit); type: cell-based; conditions: HEK293/CRE-Luc cell line stably expressing the GLP-1 Receptor; 30 min incubation at 37° C.
Description: Activation of GLP-1 receptor is known to stimulate cyclic AMP (cAMP) production in cells which indicates primary coupling to the Gas subunit of the G protein heterotrimeric complex.
To optimize functional activity directed toward Gas coupling, a HEK293/CRE-Luc cell line developed by HDB stably expressing the GLP-1 Receptor was used. 200× concentration of compound working solutions were prepared (Agilent Technologies Bravo) with 1/2 log serial dilution in 384-well Echo LDV plate (Labcyte, Cat #LP-0200). 50 nL/well 200× concentration of compound working solutions were moved to 384-well white low volume plate (Greiner, Cat #784075) using Labcyte ECHO550. 1×10^5 cells/mL HEK293/GLP1R/CRE-LUC (HD Biosciences) cell suspensions prepared with assay buffer [DPBS containing 0.5 mM IBMX (Sigma, Cat #15879) and 0.10% BSA (GENVIEW, Cat #FA016-100g)], 10 μL cell suspensions were added to each well of previous generated assay plate which already contains 50 nL compound at 200× concentration using ThermoFisher Multidrop Combi (1000 cells/well). Seal the plate and incubate at 37° C. with 5% CO2 for 30 min.
After incubation the cAMP assay signal was generated using cAMP dynamic 2 Kit (Cisbio). 5 μL cAMP-d2 working solution was added to each well, followed with 5 μL Anti-cAMP antibody-cryptate working solution added to each well using ThermoFisher Multidrop Combi. Incubate at room temperature for 1 hour protected from light. Read the fluorescence at 665 and 615 nm with Reader PerkinElmer EnVision.

Chain of GLP-1 Receptor (P43220 24-463): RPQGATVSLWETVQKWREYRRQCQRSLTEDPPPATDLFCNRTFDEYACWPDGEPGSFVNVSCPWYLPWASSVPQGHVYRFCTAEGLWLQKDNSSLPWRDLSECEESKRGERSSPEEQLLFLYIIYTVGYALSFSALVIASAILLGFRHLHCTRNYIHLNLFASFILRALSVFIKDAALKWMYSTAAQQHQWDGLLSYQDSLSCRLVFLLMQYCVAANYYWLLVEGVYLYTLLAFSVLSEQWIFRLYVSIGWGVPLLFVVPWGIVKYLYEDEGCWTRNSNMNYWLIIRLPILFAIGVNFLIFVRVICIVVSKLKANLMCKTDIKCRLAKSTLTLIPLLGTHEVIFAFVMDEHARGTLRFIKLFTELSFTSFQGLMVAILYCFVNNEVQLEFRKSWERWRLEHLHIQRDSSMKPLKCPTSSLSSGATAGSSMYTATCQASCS

SMILES | EC50 [nM]
Cc1nnc(-c2ccc3c(nc(CN4CCc5cc(C(F)(F)F)c(OCc6ccc(Cl)cc6)nc5C4)n3C[C@@H]3CCO3)c2F)[nH]1 [Compound 68, 2-[(4-chlorophenyl)methoxy]-7-{[4-fluoro-5-(5-methyl-4H-1,2,4-triazol-3-yl)-1-{[(2S)-oxetan-2-yl]methyl}-1H-1,3-benzodiazol-2-yl]methyl}-3-(trifluoromethyl)-5,6,7,8-tetrahydro-1,7-naphthyridine] | < 1
N#CC1(Cc2cc(-c3nnc(C(F)(F)F)[nH]3)cnc2CN2CCc3cc(Cl)c(OCc4ccc(Cl)cc4F)nc3C2)CC1 [Compound 11, 1-{[2-({3-chloro-2-[(4-chloro-2-fluorophenyl)methoxy]-5,6,7,8-tetrahydro-1,7-naphthyridin-7-yl}methyl)-5-[5-(trifluoromethyl)-4H-1,2,4-triazol-3-yl]pyridin-3-yl]methyl}cyclopropane-1-carbonitrile] | > 300
FC(F)c1ccc(COc2nc3c(cc2C(F)(F)F)CCN(Cc2nc4cc(-c5nnc(C(F)(F)F)[nH]5)ncc4n2C[C@@H]2CCO2)C3)cc1 [Compound 73, 2-{[4-(difluoromethyl)phenyl]methoxy}-7-[(3-{[(2S)-oxetan-2-yl]methyl}-6-[5-(trifluoromethyl)-4H-1,2,4-triazol-3-yl]-3H-imidazo[4,5-c]pyridin-2-yl)methyl]-3-(trifluoromethyl)-5,6,7,8-tetrahydro-1,7-naphthyridine] | < 1
Cc1nnc(-c2cc3nc(CN4CCc5cc(C(F)(F)F)c(OCc6c(F)cc(Cl)cc6F)nc5C4)n(C[C@@H]4CCO4)c3cn2)[nH]1 [Compound 63, 2-[(4-chloro-2,6-difluorophenyl)methoxy]-7-{[6-(5-methyl-4H-1,2,4-triazol-3-yl)-3-{[(2S)-oxetan-2-yl]methyl}-3H-imidazo[4,5-c]pyridin-2-yl]methyl}-3-(trifluoromethyl)-5,6,7,8-tetrahydro-1,7-naphthyridine] | < 1
CC(c1nc2cc(-c3nnc(C(F)(F)F)[nH]3)ncc2n1C[C@@H]1CCO1)N1CCc2cc(C(F)(F)F)c(OCc3ccc(Cl)cc3F)nc2C1 (stereo partly drawn) [Compound 82, 2-[(4-chloro-2-fluorophenyl)methoxy]-7-[1-(3-{[(2S)-oxetan-2-yl]methyl}-6-[5-(trifluoromethyl)-4H-1,2,4-triazol-3-yl]-3H-imidazo[4,5-c]pyridin-2-yl)ethyl]-3-(trifluoromethyl)-5,6,7,8-tetrahydro-1,7-naphthyridine] | < 1
N#Cc1nnc(-c2cc3nc(CN4CCc5cc(Cl)c(OCc6c(F)cc(Cl)cc6F)nc5C4)n(C[C@@H]4CCO4)c3cn2)[nH]1 [Compound 9, 5-[2-({3-chloro-2-[(4-chloro-2,6-difluorophenyl)methoxy]-5,6,7,8-tetrahydro-1,7-naphthyridin-7-yl}methyl)-3-{[(2S)-oxetan-2-yl]methyl}-3H-imidazo[4,5-c]pyridin-6-yl]-4H-1,2,4-triazole-3-carbonitrile] | < 1
O=C(NCC(F)(F)F)c1ccc2c(nc(CN3CCc4cc(C(F)(F)F)c(OCc5ccc(Cl)cc5F)nc4C3)n2C[C@@H]2CCO2)c1F [Compound 21, 2-({2-[(4-chloro-2-fluorophenyl)methoxy]-3-(trifluoromethyl)-5,6,7,8-tetrahydro-1,7-naphthyridin-7-yl}methyl)-4-fluoro-1-{[(2S)-oxetan-2-yl]methyl}-N-(2,2,2-trifluoroethyl)-1H-1,3-benzodiazole-5-carboxamide] | 1 to 300
Cc1cc2c(nc1OCc1c(F)cc(Cl)cc1F)CN(Cc1nc3cc(-c4nnc(C(F)F)[nH]4)cnc3n1C[C@@H]1CCO1)CC2 [Compound 53, 2-[(4-chloro-2,6-difluorophenyl)methoxy]-7-({6-[5-(difluoromethyl)-4H-1,2,4-triazol-3-yl]-3-{1[(2S)-oxetan-2-yl]methyl}-3H-imidazo[4,5-b]pyridin-2-yl}methyl)-3-methyl-5,6,7,8-tetrahydro-1,7-naphthyridine] | < 1
N#Cc1nnc(-c2cc3nc(CN4CCc5cc(C(F)(F)F)c(OCc6ccc(Cl)cc6F)nc5C4)n(C[C@@H]4CCO4)c3nn2)[nH]1 [Compound 42, 5-[6-({2-[(4-chloro-2-fluorophenyl)methoxy]-3-(trifluoromethyl)-5,6,7,8-tetrahydro-1,7-naphthyridin-7-yl}methyl)-7-{1[(2S)-oxetan-2-yl]methyl}-7H-imidazo[4,5-c]pyridazin-3-yl]-4H-1,2,4-triazole-3-carbonitrile] | < 1

More lines, now with the values ahead:

EC50 [nM] | SMILES
< 1 | NC(=O)c1nnc(-c2cc3nc(CN4CCc5cc(C(F)(F)F)c(NCc6ccc(Cl)cc6F)nc5C4)n(C[C@@H]4CCO4)c3cn2)[nH]1 [Compound 107, 5-{2-[(2-{[(4-chloro-2-fluorophenyl)methyl]amino}-3-(trifluoromethyl)-5,6,7,8-tetrahydro-1,7-naphthyridin-7-yl)methyl]-3-{[(2S)-oxetan-2-yl]methyl}-3H-imidazo[4,5-c]pyridin-6-yl}-4H-1,2,4-triazole-3-carboxamide]
< 1 | Fc1cc(Cl)ccc1COc1nc2c(cc1C(F)(F)F)CCN(Cc1nc3cc(-c4nnc(C(F)(F)F)[nH]4)cnc3n1C[C@@H]1CCO1)C2 [Compound 16, 2-[(4-chloro-2-fluorophenyl)methoxy]-7-[(3-{[(2S)-oxetan-2-yl]methyl}-6-[5-(trifluoromethyl)-4H-1,2,4-triazol-3-yl]-3H-imidazo[4,5-b]pyridin-2-yl)methyl]-3-(trifluoromethyl)-5,6,7,8-tetrahydro-1,7-naphthyridine]
1 to 300 | O=c1[nH]c(-c2ccc3nc(CN4CCc5ccc(OCc6ccc(Cl)cc6F)nc5C4)n(C[C@@H]4CCO4)c3c2)no1 [Compound 2, (S)-3-(2-((2-((4-chloro-2-fluorobenzyl)oxy)-5,8-dihydro-1,7-naphthyridin-7(6H)-yl)methyl)-1-(oxetan-2-ylmethyl)-1H-benzo[d]imidazol-6-yl)-1,2,4-oxadiazol-5(4H)-one]
< 1 | O=c1[nH]c(-c2cnc3c(c2)nc(CN2CCc4cc(C(F)(F)F)c(OCc5c(F)cc(Cl)cc5F)nc4C2)n3C[C@@H]2CCO2)no1 [Compound 30, 3-[2-({2-[(4-chloro-2,6-difluorophenyl)methoxy]-3-(trifluoromethyl)-5,6,7,8-tetrahydro-1,7-naphthyridin-7-yl}methyl)-3-{[(2S)-oxetan-2-yl]methyl}-3H-imidazo[4,5-b]pyridin-6-yl]-4,5-dihydro-1,2,4-oxadiazol-5-one]
1 to 300 | O=c1[nH]c(-c2cnc3c(c2)nc(CN2CCc4ccc(OCc5ccc(Cl)cc5F)nc4C2)n3C[C@@H]2CCO2)no1 [Compound 1, (S)-3-(2-((2-((4-chloro-2-fluorobenzyl)oxy)-5,8-dihydro-1,7-naphthyridin-7(6H)-yl)methyl)-3-(oxetan-2-ylmethyl)-3H-imidazo[4,5-b]pyridin-6-yl)-1,2,4-oxadiazol-5(4H)-one]
< 1 | N#Cc1cc2c(nc1OCc1c(F)cc(Cl)cc1F)CN(Cc1nc3cc(-c4noc(=O)[nH]4)ccc3n1C[C@@H]1CCO1)CC2 [Compound 70, 2-[(4-chloro-2,6-difluorophenyl)methoxy]-7-[(1-{[(2S)-oxetan-2-yl]methyl}-5-(5-oxo-4,5-dihydro-1,2,4-oxadiazol-3-yl)-1H-1,3-benzodiazol-2-yl)methyl]-5,6,7,8-tetrahydro-1,7-naphthyridine-3-carbonitrile]
< 1 | O=C(O)c1ccc2c(c1)nc(CN1CCc3cc(C(F)(F)F)c(OCc4ccc(Cl)cc4F)nc3C1)n2C[C@@H]1CCO1 [Compound 28, 2-({2-[(4-chloro-2-fluorophenyl)methoxy]-3-(trifluoromethyl)-5,6,7,8-tetrahydro-1,7-naphthyridin-7-yl}methyl)-1-{[(2S)-oxetan-2-yl]methyl}-1H-1,3-benzodiazole-5-carboxylic acid]
< 1 | Fc1cc(Cl)ccc1COc1nc2c(cc1C(F)(F)F)CCN(Cc1nc3cc(-c4nnc(C5CC5)[nH]4)ncc3n1C[C@@H]1CCO1)C2 [Compound 65, 2-[(4-chloro-2-fluorophenyl)methoxy]-7-{[6-(5-cyclopropyl-4H-1,2,4-triazol-3-yl)-3-{1[(2S)-oxetan-2-yl]methyl}-3H-imidazo[4,5-c]pyridin-2-yl]methyl}-3-(trifluoromethyl)-5,6,7,8-tetrahydro-1,7-naphthyridine]
< 1 | O=C(Nc1cc2nc(CN3CCc4cc(C(F)(F)F)c(OCc5ccc(Cl)cc5F)nc4C3)n(C[C@@H]3CCO3)c2cn1)c1cccnc1 [Compound 103, N-[2-({2-[(4-chloro-2-fluorophenyl)methoxy]-3-(trifluoromethyl)-5,6,7,8-tetrahydro-1,7-naphthyridin-7-yl}methyl)-3-{[(2S)-oxetan-2-yl]methyl}-3H-imidazo[4,5-c]pyridin-6-yl]pyridine-3-carboxamide]
< 1 | Fc1cc(Cl)ccc1COc1nc2c(cc1C(F)(F)F)CCN(Cc1nc3c(F)c(-c4nnn[nH]4)ccc3n1C[C@@H]1CCO1)C2 [Compound 88, 2-[(4-chloro-2-fluorophenyl)methoxy]-7-[(4-fluoro-1-{[(2S)-oxetan-2-yl]methyl}-5-(1H-1,2,3,4-tetrazol-5-yl)-1H-1,3-benzodiazol-2-yl)methyl]-3-(trifluoromethyl)-5,6,7,8-tetrahydro-1,7-naphthyridine]
